Experiments:
[1] = test system: PC12 cell line expressing EGFP-tagged HD exon 1 with Q74; assay: Turnover of Q74 protein and aggregates in stable doxycycline-inducible PC12 cells after switching expression off; type: cell-based, rat; settings: for numbers of aggregate containing cells / visible aggregates: vs time-matched control; for aggregate formation as high molecular weight fraction on the stack (western blot): 72 hours after switching off the expression, vs time-matched untreated controls
Description: (§1) African green monkey kidney cells (COS-7) were grown in Dulbecco's Modified Eagle Medium (DMEM, Sigma) supplemented with 10% Fetal Bovine Serum (FBS), 100 U/ml Penicillin/Streptomycin, 2 mM L-Glutamine and 1 mM Sodium Pyruvate at 37° C., 5% Carbon dioxide. The cells were grown on coverslips in six-well plates for immunofluorescence analysis, or were directly grown in six-well plates to 60-80% confluency for 24 hours for western blot analysis. Transfection was done using LipofectAMINE reagent (Invitrogen) using the manufacturer's protocol. The transfection mixture was replaced by normal culture medium after 5 hours incubation at 37° C. and the transfected cells were analysed by immunofluorescence or immunoblot 48 hours after transfection. The cells were left untreated or treated with 10 mM 3-methyl adenine (3-MA, Sigma), 0.5 mM N^6, N^6, Dimethyl adenosine (DMA, Sigma), 0.2 μg/ml Rapamycin (Sigma), 200 nM Bafilomycin A1 (BafA1, Sigma), 10 μM Lactacystin (Sigma) or 10 μM epoxomicin (Affinity research products ltd.) for 15 hours before fixation for immunofluorescence or processing for western blots. DMA, BafA1, epoxomicin and rapamycin were dissolved in DMSO and 3-MA and lactacystin were in water. Equal amounts of water or DMSO were added to the untreated controls, where relevant. The cells on coverslips were rinsed with 1×PBS, fixed with 4% paraformaldehyde in 1×PBS for 20 min and mounted in antifadent supplemented with 4′,6-diamidino-2-phenylindole (DAPI, 3 μg/ml, Sigma) to allow visualisation of nuclear morphology. The PC12 stable cells were maintained at 75 μg/ml hygromycin in standard medium consisting of high glucose DMEM (Sigma) with 100 U/ml penicillin/streptomycin, 2 mM L-glutamine (Invitrogen), 10% heat-inactivated horse serum (Invitrogen), 5% Tet-approved fetal bovine serum (FBS) (Clontech) and 100 μg/ml G418 (Invitrogen) at 37° C., 10% CO2. The cells were seeded at 1-2×10^5 per well in 6-well plates and were induced with 1 μg/ml doxycycline (Sigma) for 8 hours. The expression of transgenes was switched off by removing doxycycline from the medium. Cells were either left untreated or treated with 3-MA, BafA1, epoxomicin, lactacystin, rapamycin, 10 μg/ml cycloheximide (Sigma) or cycloheximide+rapamycin at the concentrations specified above for 24, 48 or 72 hours and the medium with the inhibitors/activator changed every 24 hours. The cells were then scraped off from the wells into 1.5 ml eppendorf tubes, pelleted at 8000 rpm and washed twice with 1×PBS. They were either fixed with 4% paraformaldehyde for 20 minutes and mounted in DAPI over coverslips on glass slides or processed for western blot analysis. CCI-779 was supplied by Wyeth Pharmaceuticals (Philadelphia). For tissue culture experiments, a stock solution of 1M in ethanol was prepared the day of experiment and was diluted in the appropriate medium
The pellets for westerns from COS-7 or PC12 cells were lysed on ice in Laemmli buffer (62.5 mM Tris-HCl pH6.8, 5% β-mercaptoethanol, 10% glycerol, and 0.01% bromophenol blue) for 30 min in the presence of protease inhibitors (Roche Diagnostics). The lysates were subjected to SDS-PAGE (10%) electrophoresis and proteins transferred onto nitrocellulose membrane (Amersham Pharmacia Biotech). The primary antibodies used include mouse monoclonal anti-GFP antibody (8362-1, Clontech) at 1:2000, rabbit monoclonal anti-actin antibody (A2066, Sigma) at 1:3000, mouse monoclonal anti-tubulin antibody (Clone DM 1A, Sigma) at 1:1000 and mouse monoclonal anti-HA antibody (Covance) at 1:1000. Blots were probed with Horse Radish Peroxidase (HRP) conjugated anti-mouse or anti-rabbit IgG (Bio Rad) at 1:2000. Bands were visualised using the ECL detection reagent (Amersham). […]

[2] = test system: COS-7 cells expressing EGFP fused to 19 alanines (A19); assay: Aggregate formation and abnormal cell nuclei in transiently transfected COS-7 cells expressing A19; type: cell-based, African green monkey; settings: for cell death (abnormal nuclei) in A19-expressing cells / proportions of A19-expressing cells with aggregates / appearance (size, number) of A19 aggregates in cells with aggregates: 48 hours after transfection; for cell death (abnormal nuclei) in A19-expressing cells: drug for 15 hours before fixing, same concentrations; for cell death (abnormal nuclei) in A19-expressing cells / proportions of A19-expressing cells with aggregates: vs untreated; for proportions of A19-expressing cells with aggregates: drug for 15 hours before fixing: 10 mM 3-MA, 0.5 mM DMA, 200 nM BafA1, 0.2 μg/ml rapamycin, 10 μM epoxomicin; for appearance (size, number) of A19 aggregates in cells with aggregates: immunofluorescence, drug 15 hours
From the text: (§2) Mammalian expression vectors comprising EGFP (pEGFP-C1, Clontech) fused at its C-terminus with a Huntington's Disease gene exon 1 fragment with 74 polyglutamine repeats (Q74) or a polyalanine stretch of 19 repeats (A19) were used (Rankin, J. et al (2000) Biochem. J., 348, 15-19; Narain, Y. et al (1999) J. Med. Genet., 36, 739-746.). A Haemagglutinin-tagged Huntington's Disease gene exon 1 fragment with 74 polyglutamine repeats in pHM6 vector (Q74-HA) was also used. The PC12 stable lines expressing exon 1 of Huntington gene were as described in Wyttenbach A. et al., (2001) Hum. Mol. Genet. 10 1829-45.
as §1
(§3) The pellets for westerns from COS-7 or PC12 cells were lysed on ice in Laemmli buffer (62.5 mM Tris-HCl pH6.8, 5% β-mercaptoethanol, 10% glycerol, and 0.01% bromophenol blue) for 30 min in the presence of protease inhibitors (Roche Diagnostics). The lysates were subjected to SDS-PAGE (10%) electrophoresis and proteins transferred onto nitrocellulose membrane (Amersham Pharmacia Biotech). […]

[3] = test system: COS-7 cells expressing an exon 1 fragment of the HD gene with 74 glutamines (Q74); assay: Aggregate formation and abnormal cell nuclei in transiently transfected COS-7 cells expressing Q74; type: cell-based, African green monkey; settings: for cell death (apoptotic nuclear morphology) in Q74-expressing cells / proportions of Q74-expressing cells with aggregates / appearance (size, number) of Q74 aggregates in cells with aggregates: 48 hours after transfection; for cell death (apoptotic nuclear morphology) in Q74-expressing cells: drug for 15 hours before fixing, same concentrations; for cell death (apoptotic nuclear morphology) in Q74-expressing cells / proportions of Q74-expressing cells with aggregates: vs untreated; for proportions of Q74-expressing cells with aggregates: drug for 15 hours before fixing: 10 mM 3-MA, 0.5 mM DMA, 200 nM BafA1, 0.2 μg/ml rapamycin, 10 μM epoxomicin, 10 μM lactacystin; for appearance (size, number) of Q74 aggregates in cells with aggregates: immunofluorescence, drug 15 hours
From the text: as §2, §1, §3

Molecule	numbers of aggregate containing cells / visible aggregates ([1]; 8 h ON then 72 h OFF with drug)	aggregate formation as high molecular weight fraction on the stack (western blot) [1]	cell death (abnormal nuclei) in A19-expressing cells [2]	proportions of A19-expressing cells with aggregates [2]	appearance (size, number) of A19 aggregates in cells with aggregates [2]	cell death (apoptotic nuclear morphology) in Q74-expressing cells [3]	proportions of Q74-expressing cells with aggregates [3]	appearance (size, number) of Q74 aggregates in cells with aggregates [3]	cellular fluorescence ([1]; 8 h ON then 48 h OFF with 10 μM epoxomicin)	number of aggregate-containing cells ([1]; 8 h ON then 48 h OFF with 10 μM epoxomicin or 10 μM lactacystin, vs control)	heat shock protein 70 ([1]; epoxomicin treatment)	cell fluorescence (EGFP-Q74 clearance) ([1]; 8 h ON then 72 h OFF with drug, 0.2 μg/ml rapamycin, 10 μg/ml cycloheximide)	Q74 protein levels on a western blot ([1]; 8 h ON, then OFF with 0.2 μg/ml rapamycin, vs untreated control)	levels of the transgene protein (EGFP-A19) ([2]; western blot, 10 mM 3-MA)	levels of an HA-tagged version of the HD exon 1 fragment with Q74 ([3]; western blot, 10 mM 3-MA)	levels of the transgene protein (EGFP-Q74) ([3]; western blot, 10 mM 3-MA)
CO/C1=C\C(C)=C\[C@@H](C)[C@@H](O)[C@@H](C)C/C(C)=C/C=C/[C@H](OC)[C@@H]([C@@H](C)[C@@H](O)[C@H](C)[C@@]2(O)C[C@@H](O)[C@H](C)[C@@H](C(C)C)O2)OC1=O [BafA1, Bafilomycin A1]	increased	increased aggregate formation	increase	increased	increased size	increase	increased	increased size								
CC[C@H](C)[C@H](NC(=O)[C@H]([C@@H](C)CC)N(C)C(C)=O)C(=O)N[C@H](C(=O)N[C@@H](CC(C)C)C(=O)[C@@]1(C)CO1)[C@@H](C)O [epoxomicin]				increase	more aggregates in each aggregate-containing cell	did not affect	did not affect	more aggregates in each aggregate-containing cell	obvious increase	reduction	marked increase					
rapamycin			decrease	decrease		no significant change	no significant change					loss of fluorescence	decrease			
Cn1cnc(N)c2ncnc1-2 [3-MA, 3-methyl adenine]	increased	increased aggregate formation	increase	increased	increased their apparent size and number	increase	increased	increased their apparent size and number						increase	increase	increase
